Measured values published in patent US20240050414A1, “A COMPOSITION FOR USE IN THE TREATMENT OF INFERTILITY” (priority 2020, published 2024).

What was measured:
sperm = assay: CASA sperm motility assessment; format: cell-based, human; details: for maintaining percentage of motile and progressive sperm and VAP: 24 and 48 hour
Description: FIG. 1 illustrates the evaluation of the cytoprotective and antioxidant compound ergothionine for ability to preserve sperm motility and progression, wherein sperm were separated from seminal fluid by density gradient centrifugation, washed in sperm wash media, and incubated in multipurpose handling medium for 48 hours in the presence of antioxidant, wherein path velocity (A) and sperm motility (B) were quantified by CASA, wherein for statistical analysis the log ratio to control was used as the dependent variable in ONEWAY ANOVA with posthoc testing by Dunnet's test (comparisons against a single ‘control’ value only), wherein N>12 per group;
FIG. 4 illustrates ergothionine effectively maintains sperm motility and progression, wherein sperm were separated from seminal fluid by density gradient centrifugation, washed in sperm wash media and incubated in multipurpose handling medium in the presence of ergothionine at 1 mM for 24 hours (A-C) or 48 hours (D-F) or in the presence of ergothionine at 0.1 mM for 24 hours (G-I) or 48 hours (J-L), wherein sperm motility was analysed using CASA, wherein statistical analysis was performed using the Wilcoxon signed-rank, wherein N=26 per group for ergothionine at 1 mM and N=10 per group for 0.1 mM ergothionine;
FIG. 8 illustrates a head-to-head comparison of the effect of a commercially available composition and the composition on sperm motility, wherein sperm were separated from seminal fluid by density gradient centrifugation, washed in sperm wash media and incubated in multipurpose handling medium in the presence of the commercially available composition (A,B) and the composition (C,D) for a period of 30 minutes, wherein sperm motility was analysed using CASA, wherein statistical analysis was performed using the Wilcoxon signed-rank test, wherein N=6 per group; and
Sperm motility assessments were carried out by Computer Assisted Sperm Analysis (CASA) using the Hamilton Thorne software and a Zeiss microscope, following WHO and manufacturers' guidelines. Briefly, semen samples were resuspended using Pasteur pipettes and diluted 1 in 3 in sperm wash media (Irvine Scientific, 9983). […] Motility assessment was evaluated by capturing at least 1000 sperm cell tracks per slide for unprocessed samples and 300 for processed samples. Total cell count (×10e6/ml), percentage immotile (IM), non-progressively motile (NP) and progressively motile (PR) sperm and average path velocity (VAP) for M and PM sperm was recorded for each sample as defined by World Health Organisation (WHO) laboratory manual for the examination and processing of human semen (fifth edition, 2010). […]

8-OH-G on sperm DNA = assay: Flow cytometric assay of oxidative DNA damage (8-OHG) on sperm DNA; format: cell-based, human
Description: FIG. 3 illustrates evaluating the effect of ergothionine on sperm oxidative DNA damage, wherein sperm were separated from seminal fluid by density gradient centrifugation, washed in sperm wash media, and incubated in multipurpose handling medium for 48 hours in the presence of the cytoprotective and antioxidant compound ergothionine, wherein sperm were fixed in 4% PFA and stained with FITC labelled 8-OHG antibody (2 μg/ml) for 60 mins, washed and analysed by flow cytometry, wherein data were analyzed using FlowJo software and the mean fluorescent intensity (MFI) plotted, wherein statistical analysis was performed using the Wilcoxon signed-rank test, wherein N=6 per group;
A total of 1×10e6 washed semen samples were fixed by re-suspending the washed sperm cell pellet in 500 μl of 4% paraformaldehyde (Chem Cruz, 281692), pH 7.2 and incubating for 20-30 minutes at RT. Fixed spermatozoa were centrifuged at 2,500×g for 1.5 minutes and washed twice in 500 μl 1% NGS-PBS buffer.
Measurement of oxidative DNA damage was determined using anti-DNA/RNA [15A3] […]
ROS and DNA damage are the most significant contributors to male infertility. […] In measuring this parameter, a flow cytometric assay was developed that could quantify the amount of 8-hydroxyguanine (8-OH-G) in the DNA of individual sperm by the use of a specific fluorescently-labelled monoclonal antibody (see FIG. 2).

[1] = tested on: mouse oocytes with mouse sperm; assay: In vitro fertilisation and embryo development to blastocyst; format: cell-based; details: Example 6, control PBS
Description: To evaluate this, in vitro fertilisation studies were performed in the presence of the composition at a concentration of 10% and subsequent embryo development examined to blastocyst stage (see FIG. 7).

rats [2] = details: 2 g/kg; cited from earlier work
rats [3] = details: fed 0.9% of diet for 13 weeks; cited from earlier work
embryo development = details: 0.1 mM; cited from earlier work
[4] = tested on: bovine embryo development; details: cited from earlier work
sheep oocytes = details: cited from earlier work
[5] = cited from earlier work

## C[N+](C)(C)[C@@H](Cc1c[nH]c(=S)[nH]1)C(=O)[O-] [ergothionine]
sperm; 48 hours in multipurpose handling medium, FIG. 1
  effects on sperm motility and average path velocity (VAP): sperm protective properties
sperm; ergothionine 0.1 mM, p values 0.04 for all parameters
  maintaining percentage of motile and progressive sperm and VAP: effective at maintaining the percentage of motile and progressive sperm in addition to the speed of the movement (VAP)
sperm; ergothionine 1 mM, p values 0.002 for all parameters
  maintaining percentage of motile and progressive sperm and VAP: effective at maintaining the percentage of motile and progressive sperm in addition to the speed of the movement (VAP)
sperm; ergothionine 1 mM, 48 hour
  toxicity / effect on sperm motility and progression: effective and non-toxic, with no negative effect on sperm motility and progression
8-OH-G on sperm DNA; ergothionine 0.1 mM, 48 hour, FIG. 3a
  protection against 8-OH-G formation on sperm DNA: ability to protect against 8-OH-G formation on sperm DNA
8-OH-G on sperm DNA; ergothionine 1 mM vs 0.1 mM, 48 hours, FIG. 3b
  cytoprotective effect against 8-OH-G formation (dose dependence): even greater cytoprotective effect
[1]
  effectiveness of exposed sperm in fertilisation versus PBS: more effective that those exposed to PBS
Rats [2]
  adverse effects in rats: no adverse effects observed
Rats [3]
  impact on fertility in rats: no negative impact on fertility
Embryo development
  safety for embryo development: safe for embryo development
[4]
  concentrations beneficial for bovine embryo development: up to 0.1 mM
  concentrations that negatively affect bovine embryo development: > 500 µM
Sheep oocytes
  concentrations beneficial for in vitro maturation of sheep oocytes: up to 10 mM
[5]
  water solubility: water soluble
